For test [1], the system named is cell extracts prepared from P. putida CBB5. Nature of the test: NADH-dependent N-demethylase activity of CBB5 cell extracts. The test is classed as biochemical, Pseudomonas putida CBB5. As to conditions: 0.5 mM substrate, 7.2 mg mL^−1 protein.
Test [2] concerns the target T1, N-demethylase (Ndm: NdmA and NdmB subunits) (Pseudomonas putida, UniProt H9N289+H9N290).
T1 construct: lane 3, natural Ndm purified from P. putida CBB5; made in house; host or cells: purified from the natural strain Pseudomonas putida CBB5 (DEAE, Phenyl and Q Sepharose); not recombinant
T1 sequence (H9N289 1-351): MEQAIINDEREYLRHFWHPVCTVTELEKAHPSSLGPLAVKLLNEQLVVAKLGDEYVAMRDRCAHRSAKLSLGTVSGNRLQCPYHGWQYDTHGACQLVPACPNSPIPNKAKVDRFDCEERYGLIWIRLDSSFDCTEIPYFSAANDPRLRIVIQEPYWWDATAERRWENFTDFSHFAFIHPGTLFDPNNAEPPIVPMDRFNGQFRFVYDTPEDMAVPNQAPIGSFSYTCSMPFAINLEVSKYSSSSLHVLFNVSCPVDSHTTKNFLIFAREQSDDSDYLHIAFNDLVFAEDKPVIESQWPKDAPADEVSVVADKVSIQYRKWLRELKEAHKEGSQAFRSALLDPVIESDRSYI
T1 sequence (H9N290 1-355): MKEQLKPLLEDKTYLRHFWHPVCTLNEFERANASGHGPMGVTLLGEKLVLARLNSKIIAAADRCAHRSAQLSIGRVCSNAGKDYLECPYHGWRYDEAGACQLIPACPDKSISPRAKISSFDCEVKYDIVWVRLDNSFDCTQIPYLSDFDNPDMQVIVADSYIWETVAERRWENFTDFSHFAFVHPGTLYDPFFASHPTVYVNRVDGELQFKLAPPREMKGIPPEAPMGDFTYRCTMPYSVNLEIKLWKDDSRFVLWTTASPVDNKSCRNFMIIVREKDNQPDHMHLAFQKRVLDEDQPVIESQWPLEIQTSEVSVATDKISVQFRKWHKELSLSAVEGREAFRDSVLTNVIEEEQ
The experiment in a line: Methylxanthine N-demethylase activity assay with purified Ndm plus partially purified Ccr. The test is classed as biochemical, Pseudomonas putida CBB5. As to conditions: for Relative N-demethylase activity: relative to paraxanthine. On the procedure: Methylxanthine N-demethylase activity assay contained, in 1-mL total volume, 0.5 mM methylxanthine, 1 mM NADH, 50 μM Fe(NH4)2(SO4)2, and an appropriate amount of Ndm (0.08-7.5 mg protein, depending on purity of the protein) in 50 mM KPi buffer. Approximately 4 U of partially purified Ccr was added to reaction mixture when assaying Ndm in Phenyl Sepharose and Q Sepharose eluant-fractions (Ccr was not added to the enzyme reaction mixture when assaying Ndm activity in DEAE Sepharose eluant-fractions because Ccr co-eluted with Ndm). The reaction mixture was incubated at 30° C. with 300 rpm shaking on an incubating microplate shaker (VWR). Periodically, a small aliquot was sampled from the reaction mixture and mixed with equal volume of acetonitrile for quantifying concentrations of methylxanthines and N-demethylated products by HPLC. One unit of N-demethylase activity was defined as the consumption of one μmole methylxanthine per minute. When Ndm was coupled with the reductase and ferredoxin components of naphthalene dioxygenase of Pseudomonas sp. strain 9816 (Haigler & Gibson, 1990a; Haigler & Gibson, 1990b), 30 and 100 μg of the respective proteins were used. Spinach ferredoxin reductase and ferredoxin were also substituted for Ccr as described by Subramanian et al. (1979).
Determination of Kinetic Parameters. Apparent kinetic parameters of Ndm were determined by measuring the initial rate of disappearance (vo) of paraxanthine or 7-methylxanthine in 50 mM KPi buffer (pH 7.5) at 30° C. The paraxanthine and 7-methylxanthine concentrations ([S]) used in these experiments were from 20 to 500 μM. Substrates were incubated with Ndm and Ccr under standard conditions for 15 minutes. At 1, 5, 10, and 15 minutes, samples were removed from the reaction mixtures to quantitate substrate concentrations by HPLC. Plots of substrate concentrations against time were used to determine the initial rates of disappearance of substrates which were linear over 15 minutes. The apparent kinetic parameters were determined from Michaelis-Menten plots of Vo against [S] fitted with the equation
Determination of Oxygen Requirement. Oxygen consumption by Ndm during N-demethylation of paraxanthine was determined in a closed reaction vessel equipped with a Clarke-type oxygen electrode (Digitial Modell 0, Rank Brothers Ltd., Cambridge, England). The electrode was calibrated by using glucose oxidase (Sigma) and glucose for consumption of oxygen. Ndm activity assay was performed at 30° C. in a total volume of 1 ml of air-saturated 50 mM KPi buffer (pH 7.5) with 100 μM paraxanthine, 200 μM NADH, 50 μM Fe(NH4)2(SO4)2, 0.2 mg purified Ndm, and 4 U partially purified Ccr. The reaction was initiated by adding Ndm and partially purified Ccr after equilibration of all other reaction components for 3.3 minutes. After 13 minutes, a 100-μL aliquot was withdrawn from the reaction, immediately mixed with equal volume of acetonitrile to stop the enzyme reaction, and analyzed for N-demethylation product by HPLC. Background oxygen consumption, possibly due to NADH oxidase enzyme activity in the partially purified Ccr, was quantitated in control reactions containing all reaction components except paraxanthine.
Formaldehyde Determination. […] Twenty μL Nash reagent was added to 50 μl Ndm reaction sample plus 50 μl acetonitrile. This mixture was incubated at 51° C. for 12 minutes.

We go through one compound from patent US8951752B2, “N-demethyase genes and uses thereof” (priority 2011, dated 2015).

Take `Cn1cnc2c1c(=O)[nH]c(=O)n2C` [Theobromine, 3,7-dimethylxanthine]: the “degradation rate compared with paraxanthine” value in test [1] is “significantly slower”. The Products identified in test [2] (same products at 500 and 200 μM substrate) was 3- & 7-methylxanthine, and xanthine. For the same compound, the figures for the “Relative N-demethylase activity” value in test [2] (substrate conc. 200 μM) and in test [2] (substrate conc. 500 μM) were 80.2 ± 7.8 and 59.8 ± 1.9, respectively.
